Biological target: T1, AMPA (GluR1) receptor (Homo sapiens, UniProt P42261)
T1 construct: expressed in transfected cells; host or cells: HEK cells (HEK.GluR1(i), kept under hygromycin selection)
Assay: Ca2+ influx assay (FLEXstation, Fluo-3) for positive modulation of the AMPA (GluR1) receptor in HEK.GluR1(i) cells
Format: cell-based
Conditions: glutamate +/- test compound, Ca2+ response with fluo3-AM
Text: The compounds in this invention may be tested using a biological assay which measures Ca^2+ influx mediated through positive modulation of the AMPA (GluR1) receptor using standard techniques in the art such as, but not limited to, a FLEXstation (manufactured by Molecular Devices, Sunnyvale, Calif.). An optical readout using fluorescent probes is employed to measure ion channel dependent changes in intracellular ion concentration or membrane potential. The assay utilises the Ca^2+ conductance of functional homomeric GluR1(i) AMPA receptors to generate glutamate-dependent Ca^2+ responses. Influx of Ca^2+ through the ion channel is measured indirectly through an increase in intracellular Ca^2+ levels using the calcium sensitive dye such as, but not limited to, Fluo-3 (Molecular Devices, Sunnyvale, Calif.) in FLEXstation. A positive AMPA receptor modulator, in the presence of glutamate, will result in an influx of Ca^2+ through the ion channel which can be measured indirectly through an increase in intracellular Ca^2+ levels using the calcium sensitive dye Fluo-3 in FLEXstation.
HEK.GluR1(i) cells were maintained in DMEM supplemented with 10% fetaclone II, 1% non-essential amino acids and 150 μg/mL hygromycin, at 37° C./5% CO2. […]

T1 sequence (P42261 19-906 isoform P42261-2 limits assumed, species assumed): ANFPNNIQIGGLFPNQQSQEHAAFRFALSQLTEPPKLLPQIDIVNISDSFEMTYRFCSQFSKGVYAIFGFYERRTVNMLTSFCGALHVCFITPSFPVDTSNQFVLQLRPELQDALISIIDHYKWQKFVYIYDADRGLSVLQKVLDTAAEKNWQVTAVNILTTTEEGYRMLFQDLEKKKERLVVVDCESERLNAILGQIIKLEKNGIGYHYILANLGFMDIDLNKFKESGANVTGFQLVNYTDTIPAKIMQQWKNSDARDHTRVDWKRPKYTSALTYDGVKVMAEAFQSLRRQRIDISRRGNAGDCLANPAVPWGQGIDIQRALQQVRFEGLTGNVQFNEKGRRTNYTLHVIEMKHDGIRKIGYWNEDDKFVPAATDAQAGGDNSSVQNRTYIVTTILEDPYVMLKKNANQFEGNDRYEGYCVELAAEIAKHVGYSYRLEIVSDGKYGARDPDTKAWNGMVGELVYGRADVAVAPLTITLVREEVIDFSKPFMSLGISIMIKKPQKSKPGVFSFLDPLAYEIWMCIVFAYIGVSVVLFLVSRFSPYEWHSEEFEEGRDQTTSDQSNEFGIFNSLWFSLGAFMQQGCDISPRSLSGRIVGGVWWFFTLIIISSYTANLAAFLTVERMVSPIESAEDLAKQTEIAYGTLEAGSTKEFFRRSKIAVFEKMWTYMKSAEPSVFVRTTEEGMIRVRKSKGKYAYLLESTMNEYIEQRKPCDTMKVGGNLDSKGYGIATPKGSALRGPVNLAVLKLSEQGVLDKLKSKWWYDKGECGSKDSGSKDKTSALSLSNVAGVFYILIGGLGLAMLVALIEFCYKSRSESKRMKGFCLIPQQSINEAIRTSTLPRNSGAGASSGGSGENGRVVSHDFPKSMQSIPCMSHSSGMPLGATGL

Compound: CC(O)c1cn(CC(=O)Nc2sc3c(c2C(N)=O)CCCC3)nc1C(F)(F)F (stereo not shown) [Example 67, 2-(2-(4-(1-hydroxyethyl)-3-(trifluoromethyl)-1H-pyrazol-1-yl)acetamido)-4,5,6,7-tetrahydrobenzo[b]thiophene-3-carboxamide]
- EC50: 2200 nM
